Values quoted from earlier work, collected in patent US20160101140A1, “Method for Processing Rosaceous Kernels” (priority 2014, published 2016).

System: tumors
Conditions: finding of Sugiura

In the case of N#C[C@H](O[C@@H]1O[C@H](CO[C@@H]2O[C@H](CO)[C@@H](O)[C@H](O)[C@H]2O)[C@@H](O)[C@H](O)[C@H]1O)c1ccccc1 [Vit B17, amygdalin], the “occurrence of a cancer” value is given as “can inhibit an occurrence of a cancer”, the “pain caused by the cancer” value is given as “can lessen the pain caused by the cancer” and the anti-cancer activity (background section) is given as “had anti-cancer activity”. For the same compound, the “inhibition of secondary tumors” value (mice) was “inhibited secondary tumors in mice”.
